By ED50 is commonly meant the dose at which the effect has come halfway, by size or by number of responders.

Where a name gives a salt, the structure may show the parent alone. Read-outs that look alike come from different tables or passages of the source.

This is an account of results in US12473291B2 (priority 2019, dated 2025).

For one assay, the system named is KM mice. Put plainly: animal or person. Particulars: for duration and recovery time compared with remimazolam / effective dose compared with remimazolam: mice, tail vein, in words. Type of assay: in vivo.
In the next assay the test system is SD rats. Description: animal or person. In kind it is in vivo. Particulars: for duration and recovery time compared with remimazolam / effective dose compared with remimazolam: rats, tail vein, in words.
Setting [1] is: KM mice, single tail vein injection at 2×ED50, time from disappearance to recovery of righting reflex.
The mark [2] stands for this setting: KM mice, single tail vein injection at 2×ED50, time from recovery of righting reflex to free crawling.
[3] abbreviates: Mus musculus, KM mice (male, 18-22 g), injection via the tail vein, disappearance of righting reflex, read-out: ED50.
The mark [4] stands for this setting: Rattus norvegicus, SD rats (male, 220-300 g), injection via the tail vein, disappearance of righting reflex, read-out: ED50.
[5] abbreviates: SD rats, single tail vein injection at 2×ED50, time from disappearance to recovery of righting reflex.
[6] abbreviates: SD rats, single tail vein injection at 2×ED50, time from recovery of righting reflex to free crawling.

On to `Cc1cnc2n1-c1c(Cl)c(Cl)c(Cl)c(Cl)c1C(c1ccccn1)=N[C@H]2CCC(=O)OCOC(=O)OC(C(C)C)C(C)C` [Example 31], for which the 2ED50 duration with KM mice (setting [1]) is recorded as 2.13 min; in the assay with SD rats (setting [5]), 1.23 min. The 2ED50 recovery time is 1.04 min in the assay on KM mice (setting [2]) and 1.14 min with SD rats (setting [6]). Besides, the Quality of recovery entry was “++ (“++” means 1-3 min)” with KM mice (KM mice, tail vein injection) and “+ (“+” means <1 min)” with SD rats (SD rats, tail vein injection). For the same molecule, the ED50 was determined as 17.3 mg/kg with KM mice (setting [3]) and 2.3 mg/kg in the assay with SD rats (setting [4]). Also, the “duration and recovery time compared with remimazolam” value with KM mice and in the assay on SD rats was “significantly shorter” in each case. In addition, the “effective dose compared with remimazolam” value with KM mice and in the assay with SD rats was “significantly lower” each time.
With `COC(=O)COC(=O)CC[C@@H]1N=C(c2ccccn2)c2cc(Br)c(Br)cc2-n2c(C)cnc21` [Example 20], the 2ED50 duration in the assay on KM mice (setting [1]) came to 4.47 min; in the assay on SD rats (setting [5]), 3.47 min. For the same molecule, the 2ED50 recovery time is given as 2.43 min in the assay on KM mice (setting [2]) and 2.49 min in the assay with SD rats (setting [6]). In addition, the Quality of recovery entry is given as “+++ (“+++” means 3-5 min)” in the assay with KM mice (KM mice, tail vein injection) and “++ (“++” means 1-3 min)” in the assay with SD rats (SD rats, tail vein injection). Further, the ED50 amounted to 31.4 mg/kg in the assay on KM mice (setting [3]) and 4.7 mg/kg in the assay with SD rats (setting [4]).
`CCOC(=O)OCOC(=O)CC[C@@H]1N=C(c2ccccn2)c2cc(Cl)cc(F)c2-n2c(C)cnc21` [Example 71, ((Ethoxycarbonyl)oxy)methyl 3-((4S)-8-chloro-10-fluoro-1-methyl-6-(pyridine-2-yl)-4H-benzo[f]imidazo [1,2-a][1,4]diaza-4-yl)propionate 2-hydroxypropane-1,2,3-tricarboxylate]: the ED50 in the assay on KM mice (Mus musculus) was 28.2 mg/kg. Further, in the assay with KM mice (mouse, in vivo), the 2ED50 duration is given as 3.09 min, the 2ED50 recovery time was determined as 2.36 min and the Quality of recovery entry is listed as “++ (key: “+” means <1 mm; “++” means 1-3 min; “+++” means 3-5 min; “++++” means 5-10 min; “+++++” means >10 mm)”. Besides, the ED50 in the assay with SD rats (Rattus norvegicus) was 4.8 mg/kg. In the assay on SD rats (rat, in vivo), the “2ED50 duration” value came to 3.21 min, the 2ED50 recovery time is 2.36 min and the Quality of recovery entry is “+ (key: “+” means <1 min; “++” means 1-3 min; “+++” means 3-5 min; “++++” means 5-10 min; “+++++” means >10 min)”.
For `CCOC(=O)C(C)(C)OC(=O)CC[C@@H]1N=C(c2ccccn2)c2c(cc(C)c(Cl)c2C)-n2c(C)cnc21` [Example 77, Ethyl 2-((3-((4S)-8-chloro-1,7,9-trimethyl-6-(pyridine-2-yl)-4H-benzo[f]imidazo[1,2-a][1,4]diazapin-4-yl)propionyl)oxy)-2-methylpropionate 2-hydroxy-1-naphthoate], the 2ED50 duration was 3.28 min in the assay on KM mice (setting [1]) and 2.38 min in the assay with SD rats (setting [5]). Also, the figures for the 2ED50 recovery time in the assay on KM mice (setting [2]) and in the assay on SD rats (setting [6]) were 2.39 min and 2.47 min, respectively. In addition, the Quality of recovery result with KM mice (KM mice, tail vein injection) was “+++ (“+++” means 3-5 min)”; in the assay on SD rats (SD rats, tail vein injection), “+++ (“+++” means 3-5 min)”. In addition, the ED50 in the assay on KM mice (setting [3]) was determined as 30.2 mg/kg; with SD rats (setting [4]), 6.1 mg/kg.
As to `Cc1c(Cl)c(C(F)(F)F)cc2c1C(c1ccccn1)=N[C@@H](CCC(=O)OC(C)C(=O)OC(C)C)c1ncc(C)n1-2` (stereo partly drawn) [Example 78, 1-Isopropoxy-1-oxopropane-2-yl3-((4S)-8-chloro-1,7-dimethyl-6-(pyridine-2-yl)-9-(trifluoromethyl)-4H-benzo[f]imidazo[1,2-a][1,4]diaza-4-ylpropionate nicotinate], the figures for the ED50 in the assay on KM mice (Mus musculus) and in the assay on SD rats (Rattus norvegicus) were 28.2 mg/kg and 6.2 mg/kg, respectively. Further, the 2ED50 duration in the assay with KM mice (mouse, in vivo) stood at 3.39 min; in the assay with SD rats (rat, in vivo) it was 2.55 min. Further, the 2ED50 recovery time in the assay on KM mice (mouse, in vivo) stood at 1.36 min; in the assay on SD rats (rat, in vivo), 2.38 min. The Quality of recovery entry was “++ (key: “+” means <1 mm; “++” means 1-3 min; “+++” means 3-5 min; “++++” means 5-10 min; “+++++” means >10 mm)” in the assay on KM mice (mouse, in vivo) and “++ (key: “+” means <1 mm; “++” means 1-3 min; “+++” means 3-5 min; “++++” means 5-10 min; “+++++” means >10 mm)” in the assay with SD rats (rat, in vivo).
Take `Cc1cnc2n1-c1cc(Br)c(Br)cc1C(c1ccccn1)=N[C@H]2CCC(=O)OCOC(=O)OC(C)C` [Example 10]: the 2ED50 duration with KM mice (setting [1]) was determined as 5.12 min; with SD rats (setting [5]) it was 5.31 min. In addition, the 2ED50 recovery time in the assay with KM mice (setting [2]) and in the assay on SD rats (setting [6]) was 2.06 min in each case. Moreover, the Quality of recovery result in the assay with KM mice (KM mice, tail vein injection) is reported as “+++ (“+++” means 3-5 min)”; in the assay with SD rats (SD rats, tail vein injection) it was “++ (“++” means 1-3 min)”. Further, the ED50 with KM mice (setting [3]) was determined as 28.3 mg/kg; in the assay on SD rats (setting [4]), 5.8 mg/kg.
For the molecule `COc1cc(C)cc2c1-n1c(C)cnc1[C@H](CCC(=O)OC1(C(=O)OC(C)C)CC1)N=C2c1ccccn1` [Example 80, Isopropyl 1-((3-((4S)-10-methoxy-1,8-dimethyl-6-(pyridine-2-yl)-4H-benzo[f]imidazo[1,2-a][1,4]diaza-4-yl)propionyl)oxy) cyclopropane-1-carboxylate methyl sulfate], the 2ED50 duration was found to be 3.56 min in the assay with KM mice (setting [1]) and 2.36 min in the assay on SD rats (setting [5]). Besides, the figures for the 2ED50 recovery time in the assay with KM mice (setting [2]) and in the assay on SD rats (setting [6]) were 2.01 min and 2.18 min, respectively. Further, the Quality of recovery result with KM mice (KM mice, tail vein injection) is “+++ (“+++” means 3-5 min)”; in the assay with SD rats (SD rats, tail vein injection), “++ (“++” means 1-3 min)”. Moreover, the results for the ED50 in the assay with KM mice (setting [3]) and in the assay with SD rats (setting [4]) were 30.9 mg/kg and 6.7 mg/kg, respectively.
As for `COC(=O)C1(OC(=O)CC[C@@H]2N=C(c3ccccn3)c3cc(Br)c(Br)cc3-n3c(C)cnc32)CC1` [Example 18], the 2ED50 duration is 5.09 min in the assay with KM mice (setting [1]) and 4.49 min in the assay with SD rats (setting [5]). In addition, the 2ED50 recovery time with KM mice (setting [2]) worked out at 2.49 min; with SD rats (setting [6]), 2.58 min. Further, the Quality of recovery result in the assay with KM mice (KM mice, tail vein injection) was “+++ (“+++” means 3-5 min)”; in the assay with SD rats (SD rats, tail vein injection), “+++ (“+++” means 3-5 min)”. The median effective dose (ED50) in the assay on KM mice (setting [3]) was 30.1 mg/kg; with SD rats (setting [4]), 4.8 mg/kg.
As to `CCOC(=O)C1(OC(=O)CC[C@@H]2N=C(c3ccccn3)c3cc(Br)c(Br)cc3-n3c(C)cnc32)CC1` [Example 19], the 2ED50 duration in the assay on KM mice (setting [1]) amounted to 6.07 min; in the assay with SD rats (setting [5]), 4.07 min. In addition, the 2ED50 recovery time in the assay with KM mice (setting [2]) worked out at 2.09 min; with SD rats (setting [6]) it was 2.12 min. Besides, the Quality of recovery result is listed as “++++ (“++++” means 5-10 min)” in the assay on KM mice (KM mice, tail vein injection) and “+++ (“+++” means 3-5 min)” in the assay with SD rats (SD rats, tail vein injection). For the same molecule, the values for the ED50 with KM mice (setting [3]) and in the assay on SD rats (setting [4]) were 23.2 mg/kg and 5.6 mg/kg, respectively.
For `CCOC(=O)C(C)OC(=O)CC[C@@H]1N=C(c2ccccn2)c2cc(Br)ccc2-n2c(C)cnc21` (some centres unmarked) [Example 61], the 2ED50 duration amounted to 3.01 min in the assay with KM mice (setting [1]) and 1.21 min in the assay with SD rats (setting [5]). In addition, the 2ED50 recovery time is reported as 1.58 min with KM mice (setting [2]) and 2.01 min in the assay on SD rats (setting [6]). For the same molecule, the Quality of recovery result in the assay on KM mice (KM mice, tail vein injection) is on record as “+++ (“+++” means 3-5 min)”; with SD rats (SD rats, tail vein injection) it was “++ (“++” means 1-3 min)”. The ED50 in the assay with KM mice (setting [3]) worked out at 29.9 mg/kg; with SD rats (setting [4]), 2.7 mg/kg.
Regarding “(((((3-Methylbutane-2-yl)oxy)carbonyl)oxy) methyl 3-((4S)-9-bromo-8-fluoro-1-methyl-6- (pyridine-2-yl)-4H-benzo[f]imidazo [1,2-a][1,4]diaza-4-ylpropionate formate [Example 73]”, in the assay with KM mice (mouse, in vivo), the 2ED50 duration is listed as 3.33 min, the 2ED50 recovery time is 2.38 min, the ED50 was 26.3 mg/kg and the Quality of recovery entry is “+++ (key: “+” means <1 mm; “++” means 1-3 min; “+++” means 3-5 min; “++++” means 5-10 min; “+++++” means >10 mm)”. Also, in the assay on SD rats (rat, in vivo), the “2ED50 duration” value is reported as 2.45 min, the 2ED50 recovery time came out at 2.44 min, the ED50 is recorded as 5.2 mg/kg and the Quality of recovery result is on record as “++ (key: “+” means <1 mm; “++” means 1-3 min; “+++” means 3-5 min; “++++” means 5-10 min; “+++++” means >10 mm)”.
For `COC(=O)C(C)OC(=O)CC[C@@H]1N=C(c2ccccn2)c2c(cc(Cl)c(Cl)c2Cl)-n2c(C)cnc21` (some centres unmarked) [Example 29], the 2ED50 duration in the assay on KM mice (setting [1]) amounted to 4.59 min; in the assay on SD rats (setting [5]), 3.59 min. Also, the results for the 2ED50 recovery time with KM mice (setting [2]) and in the assay with SD rats (setting [6]) were 2.48 min and 2.44 min, respectively. In addition, the Quality of recovery result in the assay on KM mice (KM mice, tail vein injection) was “+++ (“+++” means 3-5 min)”; in the assay with SD rats (SD rats, tail vein injection), “+++ (“+++” means 3-5 min)”. For the same molecule, the ED50 in the assay with KM mice (setting [3]) is 30.8 mg/kg; in the assay with SD rats (setting [4]), 5.8 mg/kg.
As for `CCOC(=O)COC(=O)CC[C@@H]1N=C(c2ccccn2)c2cccc(Cl)c2-n2c(C)cnc21` [Example 37], the 2ED50 duration in the assay on KM mice (setting [1]) was found to be 4.42 min; in the assay with SD rats (setting [5]), 3.02 min. For the same molecule, the 2ED50 recovery time in the assay on KM mice (setting [2]) amounted to 1.58 min; in the assay on SD rats (setting [6]), 2.51 min. The Quality of recovery result is reported as “++ (“++” means 1-3 min)” in the assay with KM mice (KM mice, tail vein injection) and “++ (“++” means 1-3 min)” in the assay with SD rats (SD rats, tail vein injection). Besides, the values for the ED50 with KM mice (setting [3]) and with SD rats (setting [4]) were 25.7 mg/kg and 5.7 mg/kg, respectively.
`Cc1cnc2n1-c1ccc(Br)cc1C(c1ccccn1)=N[C@H]2CCC(=O)OCOC(=O)OC(C)(C)C` [Example 49]: the 2ED50 duration with KM mice (setting [1]) was found to be 2.65 min; in the assay on SD rats (setting [5]), 1.24 min. For the same molecule, the 2ED50 recovery time with KM mice (setting [2]) came to 1.22 min; in the assay on SD rats (setting [6]), 2.01 min. The results for the ED50 in the assay with KM mice (setting [3]) and with SD rats (setting [4]) were 20 mg/kg and 5 mg/kg, respectively. For the same molecule, the “duration and recovery time compared with remimazolam” value with KM mice and with SD rats was “significantly shorter” each time. In addition, the “effective dose compared with remimazolam” value with KM mice and in the assay with SD rats was “significantly lower” throughout. Besides, in the assay on SD rats (SD rats, tail vein injection), the Quality of recovery entry is “+ (“+” means <1 min)”.
